Molecular target: α7-subtype of nicotinic receptors (Rattus norvegicus, UniProt Q05941)
Assay: biochemical
Assay type: binding

Chain of α7-subtype of nicotinic receptors (Q05941 23-502): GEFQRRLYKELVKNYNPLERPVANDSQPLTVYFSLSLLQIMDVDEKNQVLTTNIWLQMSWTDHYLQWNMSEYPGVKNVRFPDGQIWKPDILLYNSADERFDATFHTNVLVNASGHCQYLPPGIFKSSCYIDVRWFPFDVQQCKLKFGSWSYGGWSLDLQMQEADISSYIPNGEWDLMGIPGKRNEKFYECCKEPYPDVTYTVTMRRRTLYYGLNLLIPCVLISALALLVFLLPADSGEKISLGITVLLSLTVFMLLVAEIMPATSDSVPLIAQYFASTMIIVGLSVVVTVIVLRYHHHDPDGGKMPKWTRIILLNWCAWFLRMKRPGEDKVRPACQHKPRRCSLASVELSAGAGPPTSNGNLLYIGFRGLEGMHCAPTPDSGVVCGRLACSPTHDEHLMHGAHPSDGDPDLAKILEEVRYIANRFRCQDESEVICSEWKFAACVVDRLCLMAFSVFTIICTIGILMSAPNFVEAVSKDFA

`[O-][N+]12CCC(CC1)N(c1ncc(-c3ccc4[nH]ccc4c3)cn1)CC2` [Compound 1, 4-[5-(1H-Indol-5-yl)-pyrimidin-2-yl]-1,4-diaza-bicyclo[3.2.2]nonane 1-oxide] was tested, and the IC50 was under 40 nM.

Reference: patent US20120004214A1 (priority 2009, published 2012)
